From patent publication US7060721B1, “Imidazole compounds and medicinal use thereof” (Fujisawa Pharmaceutical Co., Ltd., priority 1998, dated 2006) come the findings set out here.

Broadly, the melting point is the temperature of the solid-liquid transition.

One data set deals with db/db mice. In words: Blood sugar level depressing activity in db/db mice. The data set is classed as in vivo. Conditions: female db/db mice; dose 3.2 mg/kg; drug-mixed diet given for 14 days; difference between db/db control group and +/+ mice taken as 100%. Here is the method:
(Blood Sugar Level Depressing Activity in db/db Mice)
Female C57BL/KsJ-dbm db+/db+, C57BL/KsJ-dbm +m/+m (Jackson Laboratory) mice (5 weeks old) were purchased and subjected to the test after 2–3 weeks of acclimating period.
The test drug was mixed with a powder diet (CE-2, Clea Japan, Inc.) in a mortar. In the case of administration in 100 mg/kg, the mixing proportion was 0.1%, in the case of 30 mg/kg, the proportion was 0.03% and in the case of 10 mg/kg, the proportion was 0.01%. The diet was changed twice a week for each group. The amount of the diet given and the amount left were recorded and the diet intake was calculated by determining the difference.
The female db/db mice were grouped according to body weight, blood sugar level and triglyceride concentration in plasma. […] The blood sugar value, triglyceride concentration in plasma and insulin concentration in plasma were measured at day 0 and day 14, and blood sugar value and triglyceride concentration in plasma were measured at day 7. Body weight was measured at day 0, day 7 and day 14. […]
Blood sugar value was measured using 10–15 μl of plasma and in accord with glucose oxidase method (glucose CII-Test Wako, Wako Pure Chemicals Co., Ltd.). The triglyceride concentration in plasma was measured using 10–15 μl of plasma and in accord with GPO-p-chlorophenol method (triglyceride G-Test Wako) or GPO-DAOS method (triglyceride E-Test Wako). […]

Turning to `Cc1ccc(S(=O)(=O)NC(=O)/C=C/c2c(Cl)nc(C)n2Cc2ccc(-c3ccccc3)cc2Cl)cc1` [Compound A, (E)-3-[4-chloro-1-(2-chloro-4-phenylbenzyl)-2-methylimidazol-5-yl]-N-((4-methylbenzene)sulfonyl)-2-propenamide], the “Blood sugar decrease (%)” value with db/db mice came out at 63%.
In turn, `CCCCCOc1ccc(Cn2c(/C=C(\C)C(=O)NS(=O)(=O)/C=C/c3ccccc3)cnc2C)c(Cl)c1` [Example 70, (E)-3-(1-(2-chloro-4-(1-pentyloxy)benzyl)-2-methylimidazol-5-yl)-2-methyl-N-((E)-2-phenylethenesulfonyl)-2-propenamide] displayed a melting point of 143 to 145 °C.
In turn, `CCCCCOc1ccc(Cn2c(C)nc(Cl)c2/C=C(\C)C(=O)NS(=O)(=O)/C=C/c2ccccc2)c(Cl)c1` [Example 71, (E)-3-(4-chloro-1-(2-chloro-4-(1-pentyloxy)benzyl)-2-methylimidazol-5-yl)-2-methyl-N-((E)-2-phenylethenesulfonyl)-2-propenamide] displayed a melting point of 156 to 157 °C.
Regarding `CCCCCOc1ccc(Cn2c(C)nc(Cl)c2C(=O)NS(=O)(=O)/C=C/c2ccccc2)c(Cl)c1` [Example 72, 4-chloro-1-(2-chloro-4-(1-pentyloxy)benzyl)-2-methyl-5-((E)-2-phenylethenesulfonyl-carbamoyl)-1H-imidazole], the melting point fell in the range of 107 to 110 °C.
For `CCCCCOc1ccc(Cn2c(C)nc(Cl)c2COC(=O)NS(=O)(=O)c2ccc(C)cc2)c(Cl)c1` [Example 73, (4-chloro-1-(2-chloro-4-(1-pentyloxy)benzyl)-2-methyl-1H-imidazol-5-yl)methyl N-(4-methylbenzenesulfonyl)carbamate], the melting point lay within 109 to 111 °C.
